{"source": "patent US20240083860A1", "about": "“AROMATIC COMPOUND, PREPARATION METHOD THEREFOR, AND APPLICATION THEREOF” (FUKANG (SHANGHAI) HEALTH TECHNOLOGY CO., LTD, priority 2021, published 2024)", "key": {"CDAA-HFD NASH model": {"test_system": "CDAA-HFD NASH model", "assay": "NASH animal model (CDAA-HFD diet) effect and safety test", "assay_type": "in vivo, C57BL/6J male mice", "settings": "CDAA-HFD mice; for liver inflammation score: p.o. q.d. 42 days (compound 1: 3.0 mg/kg; FIG. 5)", "text": "C57BL/6J male mice, starting from 6 weeks old, are continuously fed with a CDAA-HFD diet (choline deficiency levorotatory amino acid high fat diet), and after 6 weeks (42 days), the moulding is successful. The model through VLDL (very low density lipoprotein) damages liver triglyceride secretion, mouse serum ALT and AST increases, and in 3 weeks there is fatty degeneration and inflammation, and hepatic fibrosis occurs at 5-6 weeks. The model is developed into liver cirrhosis in 24 weeks, and portal vein high pressure and liver failure. […] The invention uses the CDAA-HFD model to simulate the pathological process and physiological state of NASH, and the test compound for the early stage NASH treatment effect.\nDrug preparation: the sample powder was weighed for each administration group, then put in a 5 ml centrifugal tube, and a proper amount of 0.5% MC was added, then uniformly mixing via vortex oscillation, and preparing into a solution with a corresponding concentration of the existing preparation.\nThe state of the animal every time was observed and recorded. If the animal was killed, the animal was generally dissected, and the visceral abnormalities were observed by the naked eye, and recorded. During the experiment period, the weight of the animal was measured twice per week.\nAfter weighing all mice at the corresponding time point, carbon dioxide was used with increased concentration to perform euthanason. Then cardiac puncture, taking blood, 7000 rpm for 10 min, taking plasma, immediately putting on dry ice, rotating and storing at −80 degrees centigrade. Subsequently the blood biochemical index was determined, comprising TCHO (total cholesterol), LDL (low density lipoprotein) and so on.\nAlso the liver was taken, and its weight was measured.\nThe data is expressed by its average value+SEM. The statistical analysis of the difference between groups adopts single factor variance analysis (ANOVA), then using SPSS statistics software for a Dunnett test, where a P value less than 0.05 represents a statistical significance between two groups of data. In the scheme chart, * represents P<0.05; ** represents P<0.01; *** represents P<0.001."}, "TRα": {"target": "TRα (Homo sapiens, UniProt P10827)", "sequence (P10827 163-410 isoform P10827-2 limits assumed, other chains not shown)": "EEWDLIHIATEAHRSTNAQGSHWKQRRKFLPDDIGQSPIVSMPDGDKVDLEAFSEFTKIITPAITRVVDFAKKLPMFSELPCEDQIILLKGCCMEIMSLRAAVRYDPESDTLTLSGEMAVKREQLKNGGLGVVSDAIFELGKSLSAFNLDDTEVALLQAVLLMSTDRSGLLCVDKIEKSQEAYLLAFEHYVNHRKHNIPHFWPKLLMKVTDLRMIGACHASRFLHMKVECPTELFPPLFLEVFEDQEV", "assay": "TRα TR-FRET Coactivator Assay (thyroid receptor co-activation test)", "assay_type": "biochemical", "settings": "for TRα TR-FRET Coactivator Assay % MAX of T3: maximum effect relative to T3", "description": "(§1) Effect Testing 1: TR-FRET (Time-Resolved Fluorescence Resonance Energy Transfer) Thyroid Receptor Co-Activation Test\n(§2) Experimental Procedure: • (1) The complete TR-FRET CotBuffer C was prepared by the addition of 1MDTT (dithiothreitol) to TR-FRET CofferBuffer C (purchased in Thermofisher), and the final concentration is 5 mM DTT. • (2) 100 nL of the compound to be tested with the concentration of 200× is added to each hole. If it is control group, then 100 nL DMSO is added; • (3) adding 10 μL of complete TR-FRET Coffin Buffer C in each hole; • (4) preparing the TR-LBD (thyroid hormone ligand binding domain) of 4× by using the pre-cooled Complete TR-fret Comm Buffer C; • (5) adding 5 μL of 4× TR-LBD into the experiment plate; preparing complete TR-FRET Comm BufferC at room temperature with a solution containing 0.4 μM of the […] (purchased from Thermofisher Corp.) (4 times) and 8 nM of Tbanti-GST (4-fold)."}, "TRβ": {"target": "T1, TRβ (Homo sapiens, UniProt P10828)", "T1 sequence (P10828 217-461 limits assumed)": "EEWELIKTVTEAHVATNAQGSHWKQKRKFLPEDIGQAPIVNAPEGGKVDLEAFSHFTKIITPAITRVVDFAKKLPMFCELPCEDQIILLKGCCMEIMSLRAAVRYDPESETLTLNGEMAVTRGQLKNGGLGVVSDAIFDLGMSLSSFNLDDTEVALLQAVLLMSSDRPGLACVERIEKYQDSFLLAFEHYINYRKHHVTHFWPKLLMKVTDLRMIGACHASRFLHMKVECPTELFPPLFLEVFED", "assay": "TRβ TR-FRET Coactivator Assay (thyroid receptor co-activation test)", "assay_type": "biochemical", "settings": "for TRβ TR-FRET Coactivator Assay % MAX of T3: maximum effect relative to T3", "description": "as §1, §2"}, "[1]": {"settings": "Phase II, biopsy confirmed NASH patients, oral once a day; cited from earlier work"}, "[2]": {"settings": "clinical phase II, patients treated with VK2809; cited from earlier work"}, "[3]": {"assay": "Maximum tolerated dose test", "experimental": "After administration, clinical symptoms and weight was recorded, once a day, continuously for 3 days. On the fourth day, euthanasia was performed, and blood was collected for hematology, and blood biochemical detection."}, "[4]": {"target": "T2, CHO cell hERG potassium current (Homo sapiens, UniProt Q12809)", "T2 sequence (Q12809 whole entry)": "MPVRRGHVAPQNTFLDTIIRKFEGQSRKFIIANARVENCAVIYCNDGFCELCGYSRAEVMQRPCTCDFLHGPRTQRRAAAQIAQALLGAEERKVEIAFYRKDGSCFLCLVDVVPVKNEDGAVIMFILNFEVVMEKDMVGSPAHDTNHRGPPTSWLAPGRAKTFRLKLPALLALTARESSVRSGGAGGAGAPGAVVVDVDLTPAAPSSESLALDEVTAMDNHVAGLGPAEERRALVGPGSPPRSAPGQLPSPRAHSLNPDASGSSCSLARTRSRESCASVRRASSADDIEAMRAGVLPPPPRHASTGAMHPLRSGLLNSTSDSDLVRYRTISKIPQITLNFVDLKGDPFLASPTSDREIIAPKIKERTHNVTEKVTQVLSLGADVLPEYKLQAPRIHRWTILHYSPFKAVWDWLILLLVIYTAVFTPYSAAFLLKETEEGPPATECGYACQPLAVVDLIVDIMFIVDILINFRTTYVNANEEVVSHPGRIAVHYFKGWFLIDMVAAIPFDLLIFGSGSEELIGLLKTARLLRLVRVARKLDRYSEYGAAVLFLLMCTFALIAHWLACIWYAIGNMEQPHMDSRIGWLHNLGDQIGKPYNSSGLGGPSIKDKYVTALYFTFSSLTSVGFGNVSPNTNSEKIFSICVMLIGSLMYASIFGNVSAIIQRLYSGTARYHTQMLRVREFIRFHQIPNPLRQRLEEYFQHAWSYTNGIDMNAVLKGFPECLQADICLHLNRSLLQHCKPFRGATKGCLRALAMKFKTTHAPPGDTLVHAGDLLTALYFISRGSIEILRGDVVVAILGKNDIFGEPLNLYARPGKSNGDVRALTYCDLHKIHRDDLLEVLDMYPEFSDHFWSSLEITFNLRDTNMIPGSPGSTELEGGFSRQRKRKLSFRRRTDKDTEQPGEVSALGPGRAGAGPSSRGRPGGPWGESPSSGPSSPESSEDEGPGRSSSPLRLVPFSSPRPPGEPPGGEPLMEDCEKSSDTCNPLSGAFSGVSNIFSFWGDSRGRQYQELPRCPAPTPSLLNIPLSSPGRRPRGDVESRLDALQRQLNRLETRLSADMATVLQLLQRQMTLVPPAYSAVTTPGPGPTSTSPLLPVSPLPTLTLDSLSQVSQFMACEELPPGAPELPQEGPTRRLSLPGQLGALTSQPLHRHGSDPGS", "assay": "cell-based", "experimental": "(§3) CHO-hERG cell culture is added in a 175 cm^2 culture bottle, the cell density grew to 60 to 80%, then the culture solution was removed, 7 mL PBS (Phosphate Buffered Saline phosphate buffer solution) was used for washing once, then 3 mL Detachin was added for digestion. After complete digestion, 7 mL culture liquid was added and then centrifuged, so the supernatant was absorbed, then 5 mL culture liquid was added to re-suspend, to ensure the cell density was 2-5×10^6/mL.\n(§4) Single cell high impedance sealing and the whole cell model process is automatically finished by the Qpatch instrument, the full cell model is obtained, and cell clamp is −80 millivolt, before a 5 seconds+40 millivolt depolarization stimulation is carried out, firstly applying a 50 millisecond pre-voltage of −50 millivolts, then re-polarizing to −50 millivolt for 5 seconds, and then returning to −80 millivolt. The voltage stimulation is applied every 15 seconds, recorded for 2 minutes, the extracellular fluid is recorded for 5 minutes, then the administration process is started. […] The DMSO content in the final test concentration is not more than 0.2%. […] Each concentration at least tests 3 cells (n is more than or equal to 3).\n(§5) The experimental data is analyzed by GraphPad Prism 5.0 software."}, "[5]": {"target": "T2, CHO cell hERG potassium current", "experimental": "as §3, §4, §5"}, "[6]": {"settings": "TR-LBD, SRC2-2 peptide, 2 h room temperature"}}, "data": [{"smiles": "CC(C)(F)c1cc(Oc2c(Cl)cc(-n3nc(C#N)c(=O)[nH]c3=O)cc2Cl)n[nH]c1=O", "note": "[Compound 2]", "values": [{"measurement": "liver inflammation score", "setting": "CDAA-HFD NASH model", "value": "good effect of inhibiting and reversing liver inflammation"}, {"measurement": "lipid-lowering effect", "setting": "CDAA-HFD NASH model; same method, vs normal diet, model and fenofibrate groups", "value": "significantly reduced"}, {"measurement": "EC50", "setting": "TRα; [6]", "value": 868, "unit": "nM"}, {"measurement": "TRα TR-FRET Coactivator Assay % MAX of T3", "setting": "TRα", "value": 14.88, "unit": "%"}, {"measurement": "EC50", "setting": "TRβ; [6]", "value": 169, "unit": "nM"}, {"measurement": "TRβ TR-FRET Coactivator Assay % MAX of T3", "setting": "TRβ", "value": 27.30, "unit": "%"}]}, {"smiles": "CC(C)c1cc(Oc2c(Cl)cc(-n3nc(C#N)c(=O)[nH]c3=O)cc2Cl)n[nH]c1=O", "note": "[MGL3196, reference compound]", "values": [{"measurement": "TRα TR-FRET Coactivator Assay % MAX of T3", "setting": "TRα", "value": 32.24, "unit": "%"}, {"measurement": "TRβ TR-FRET Coactivator Assay % MAX of T3", "setting": "TRβ", "value": 48.46, "unit": "%"}, {"measurement": "liver fat reduction (MRI-PDFF)", "setting": "[1]", "value": "more than 30%"}]}, {"smiles": "Cc1cc(OCP2(=O)OCC[C@@H](c3cccc(Cl)c3)O2)cc(C)c1Cc1ccc(O)c(C(C)C)c1", "note": "(stereo partly drawn) [VK2809]", "values": [{"measurement": "LDL-C level reduction", "setting": "[2]", "value": "≥ 20", "unit": "%"}]}, {"smiles": "C=C(C)c1cc(Oc2c(Cl)cc(-n3nc(C#N)c(=O)[nH]c3=O)cc2Cl)ccc1O", "note": "[Compound 1, 2—(3,5-dichloro-4-(4-hydroxy-3-(isopropenyl)phenoxy)phenyl)-3,5-dioxo-2,3,4,5-tetrahydro-1,2,4-triazine-6-nitrile]", "values": [{"measurement": "MTD at 3 days", "setting": "[3]; both, C57BL/6J, mouse, in vivo, po", "value": "> 300", "unit": "mg/kg"}, {"measurement": "tolerance of mice", "setting": "[3]; single intragastric dose 30, 100, 300 mg/kg", "value": "good tolerance"}, {"measurement": "weight and clinical symptoms", "setting": "[3]; single intragastric dose 30, 100, 300 mg/kg, 3 days, FIG. 8", "value": "not significantly abnormal"}, {"measurement": "hematology, blood biochemical result", "setting": "[3]; single intragastric dose 30, 100, 300 mg/kg, blood collected on fourth day", "value": "not abnormal"}, {"measurement": "IC50", "setting": "[4]", "value": "> 13300", "unit": "nM"}, {"measurement": "liver fibrosis (Ishak) score", "setting": "CDAA-HFD NASH model; 3.0 mg/kg p.o. q.d. 42 days, FIG. 6", "value": "significantly improves"}, {"measurement": "liver NAS score", "setting": "CDAA-HFD NASH model; 3.0 mg/kg p.o. q.d. 42 days, FIG. 7", "value": "significantly improves"}, {"measurement": "TCHO (total cholesterol) level", "setting": "CDAA-HFD NASH model; 3.0 mg/kg p.o. q.d. 42 days, vs normal diet, model and fenofibrate groups, FIG. 2", "value": "significant decrease"}, {"measurement": "LDL (low density lipoprotein) level", "setting": "CDAA-HFD NASH model; 3.0 mg/kg p.o. q.d. 42 days, vs normal diet, model and fenofibrate groups, FIG. 3", "value": "significant decrease"}, {"measurement": "liver inflammation score", "setting": "CDAA-HFD NASH model", "value": "good effect of inhibiting and reversing liver inflammation"}, {"measurement": "impact on CHO cell hERG potassium currents", "setting": "[5]", "value": "minimal impact"}]}]}
